One assay concerns the target T1, BCRP (S1M180 cells) (Homo sapiens, UniProt Q9UNQ0, R482G).
T1 construct: endogenous in cells; host or cells: S1M180 (human colon carcinoma, mitoxantrone-selected)
T1 sequence (Q9UNQ0 1-655 R482G): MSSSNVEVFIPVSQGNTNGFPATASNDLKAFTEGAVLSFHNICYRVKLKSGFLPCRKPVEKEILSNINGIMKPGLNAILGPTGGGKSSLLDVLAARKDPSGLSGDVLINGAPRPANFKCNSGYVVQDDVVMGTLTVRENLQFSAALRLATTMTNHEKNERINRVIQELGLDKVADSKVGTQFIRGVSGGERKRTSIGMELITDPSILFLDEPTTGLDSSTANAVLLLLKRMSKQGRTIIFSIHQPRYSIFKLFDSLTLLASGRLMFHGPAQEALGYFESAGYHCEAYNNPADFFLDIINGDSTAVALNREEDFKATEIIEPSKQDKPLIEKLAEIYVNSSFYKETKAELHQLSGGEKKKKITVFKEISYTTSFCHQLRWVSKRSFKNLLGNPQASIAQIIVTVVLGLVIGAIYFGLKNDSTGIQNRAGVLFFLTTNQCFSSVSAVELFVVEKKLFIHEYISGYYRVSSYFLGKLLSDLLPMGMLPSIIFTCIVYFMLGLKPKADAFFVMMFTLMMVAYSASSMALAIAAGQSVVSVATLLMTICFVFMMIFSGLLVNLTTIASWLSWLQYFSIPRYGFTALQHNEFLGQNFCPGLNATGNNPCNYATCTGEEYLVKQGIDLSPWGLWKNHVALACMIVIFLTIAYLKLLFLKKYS
Description: Cell proliferation (MTS) assay: reversal of BCRP-mediated topotecan/DOX resistance in S1M180. Type of assay: cell-based. Here is the method:
In total, 6500 cells of S1M180 or MCF7-MX100 were incubated with various doses of topotecan or DOX and modulators. The final volume in each well of 96-well plates was 200 µL. The plates were then incubated for 5 days at 37 °C. The CellTiter 96 AQueous Assay (Promega) was used to measure cell proliferation. According to the manufacturer’s instructions, MTS (2 mg/mL) and PMS (0.92 mg/mL) were mixed in a ratio of 20:1. An aliquot (10 μL) of the freshly prepared MTS/PMS mixture was added into each well, and the plate was incubated for 2 h at 37 °C. Optical absorbance at 490 nm was then recorded with microplate absorbance reader (Bio-Rad). IC50 values were calculated from the dose-response curves of MTS assays (Prism 4.0).

In the next assay the target is T2, P-gp (LCC6MDR cells) (Homo sapiens, UniProt P08183).
T2 construct: expressed in transfected cells; host or cells: LCC6MDR (human breast cancer line)
T2 sequence (P08183 whole entry): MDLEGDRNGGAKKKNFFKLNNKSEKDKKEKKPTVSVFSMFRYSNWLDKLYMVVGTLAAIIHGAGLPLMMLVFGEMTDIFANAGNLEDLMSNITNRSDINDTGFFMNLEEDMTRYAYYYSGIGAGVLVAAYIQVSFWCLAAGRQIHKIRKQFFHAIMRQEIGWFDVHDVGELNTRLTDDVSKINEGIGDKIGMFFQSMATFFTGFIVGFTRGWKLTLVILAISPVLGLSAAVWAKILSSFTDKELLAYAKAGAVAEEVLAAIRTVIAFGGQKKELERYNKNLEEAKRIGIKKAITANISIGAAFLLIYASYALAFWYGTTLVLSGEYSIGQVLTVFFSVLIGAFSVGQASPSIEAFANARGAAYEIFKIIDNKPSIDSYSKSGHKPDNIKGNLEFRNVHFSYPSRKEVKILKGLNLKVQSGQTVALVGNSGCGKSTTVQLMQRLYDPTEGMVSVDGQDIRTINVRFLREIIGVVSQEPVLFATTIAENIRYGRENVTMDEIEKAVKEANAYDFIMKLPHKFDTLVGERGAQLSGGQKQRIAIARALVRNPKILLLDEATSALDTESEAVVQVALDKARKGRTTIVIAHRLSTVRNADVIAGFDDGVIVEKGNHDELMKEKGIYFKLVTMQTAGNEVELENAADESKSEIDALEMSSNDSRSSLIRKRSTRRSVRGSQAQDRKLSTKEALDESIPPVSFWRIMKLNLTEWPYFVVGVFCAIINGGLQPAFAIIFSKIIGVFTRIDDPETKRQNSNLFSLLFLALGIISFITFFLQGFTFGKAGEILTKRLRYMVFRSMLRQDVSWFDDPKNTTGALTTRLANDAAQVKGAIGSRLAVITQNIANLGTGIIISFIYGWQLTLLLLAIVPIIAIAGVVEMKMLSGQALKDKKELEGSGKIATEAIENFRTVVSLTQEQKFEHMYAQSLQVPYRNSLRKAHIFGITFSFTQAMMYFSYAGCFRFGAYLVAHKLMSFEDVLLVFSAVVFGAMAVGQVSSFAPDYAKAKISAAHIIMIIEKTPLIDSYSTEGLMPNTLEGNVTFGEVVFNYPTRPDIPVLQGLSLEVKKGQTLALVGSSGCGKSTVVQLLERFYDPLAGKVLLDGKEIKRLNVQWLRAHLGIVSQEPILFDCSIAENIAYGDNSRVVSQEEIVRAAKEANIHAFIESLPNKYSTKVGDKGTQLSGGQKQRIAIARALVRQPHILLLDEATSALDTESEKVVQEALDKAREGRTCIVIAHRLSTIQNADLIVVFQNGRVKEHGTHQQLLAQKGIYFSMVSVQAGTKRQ
As to the kind of experiment: Reversal of P-gp-mediated paclitaxel resistance in LCC6MDR. The class given is cell-based. The following applies: value without asterisk; read-out: EC50 needed for reversing P-gp-mediated paclitaxel resistance, LCC6MDR.

Assay [1] relates to S1 cells. As to the kind of experiment: Drug accumulation assay in S1. The class given is cell-based, human. The following applies: non-BCRP overexpressing S1 cells; 100 nM or 1000 nM. Here is the method:
Figure 2 Effect of Ac15(Az8)2 on intracellular accumulation of BCRP-substrates in S1 and S1M180 cells. Cells were pre-treated with 0.1% DMSO, 100 nM, or 1000 nM Ac15(Az8)2 and then incubated with BCRP substrates. (A) Topotecan accumulation. (B) DOX accumulation. The intracellular level of drug after treatment was normalized to that of S1 cells after incubating with 0.1% DMSO. Student unpaired two-tailed t-test was conducted as indicated (** p < 0.01, *** p < 0.001). (C) To measure DOX efflux, S1M180 cells were pre-incubated with medium containing 20 μM DOX for 1 h at 37 °C. Cells were then washed and further incubated with or without 1 µM of Ac15(Az8)2. At 0, 5, 10, 30, 60, 120, and 180 min, the cells were harvested to measure the intracellular DOX level. (D) To determine intracellular Ac15(Az8)2 concentration, 1 × 10^7 cells were incubated with 1 µM of Ac15(Az8)2 at 37 °C for 2 h. Cells were then washed with ice-cold PBS. […]
Briefly, 1 × 10^6 cells of S1 and S1M180 cells were pre-incubated with 100 nM or 1000 nM Ac15(Az8)2 for 2 h and followed by 50 µM of topotecan or 20 µM of DOX for 1-h incubation. […] The fluorescence level of DOX was determined by a fluorescence microplate reader (BMG Technologies) using excitation and an emission wavelength pair of 460 nm and 610 nm.

In assay [2] the test system is S1 cells. Description: Cytotoxicity of anticancer drugs in parental S1 (0.1% DMSO). The class given is cell-based, human.

The values below come from publication PMC9653733, “Characterization of a Potent, Selective, and Safe Inhibitor, Ac15(Az8)2, in Reversing Multidrug Resistance Mediated by Breast Cancer Resistance Protein (BCRP/ABCG2)” (International Journal of Molecular Sciences, 2022).

Each structure is given as a SMILES string. Values joined by “and” are separate entries in the source; they are usually repeats but may differ in a detail not shown here. Equal entries are not always repeated. Where two headings read alike, the source gives them in different places. Bounds are passed on as bounds.

Regarding `COC(=O)c1cccc(COc2c(-c3ccc(OCCOCCn4cc(CN(Cc5ccccc5)Cc5cn(CCOCCOc6ccc(-c7oc8ccccc8c(=O)c7OCc7cccc(C(=O)OC)c7)cc6)nn5)nn4)cc3)oc3ccccc3c2=O)c1` [Ac15(Az8)2], the EC50 is 3 to 72 nM at BCRP (S1M180 cells) (HEK293/R2, MCF7-MX100 and S1M180, summary of Table 2, read-out: EC50 for reversing topotecan and DOX resistance in three BCRP-overexpressed cell lines (range)); 56 nM and 56.1 nM on BCRP (S1M180 cells) (concentration reducing IC50 of anticancer drug by half, mean ± S.D., n = 3–4, read-out: EC50 needed for reversing BCRP-mediated DOX resistance, S1M180); 72 ± 12 nM at BCRP (S1M180 cells) (concentration reducing IC50 of anticancer drug by half, mean ± S.D., n = 3–4, read-out: EC50 needed for reversing BCRP-mediated topotecan resistance, S1M180); 56 to 72 nM at BCRP (S1M180 cells) (range over DOX and topotecan resistance of Table 2, read-out: EC50 for reversing resistance in S1M180 (range)); more than 3 µM at P-gp (LCC6MDR cells). In addition, in the assay with S1 cells [1], the “Effect on DOX accumulation in S1” value was “did not affect”. The “Effect on topotecan accumulation in S1” value in the assay with S1 cells [1] is “did not affect”.
On to `CC[C@@]1(O)C(=O)OCc2c1cc1n(c2=O)Cc2cc3c(CN(C)C)c(O)ccc3nc2-1` [topotecan], for which the IC50 in the assay with S1 cells [2] (Homo sapiens, S1 + 0.1% DMSO, mean ± S.D., n = 3, read-out: IC50 of topotecan) is 446 ± 20 nM. Besides, the “RF (Relative Fold), topotecan: resistance of S1M180 compared to parental S1” value in the assay with S1 cells [2] (S1 + 0.1% DMSO vs S1M180 + 0.1% DMSO) is 27.9.
